{
  "source": "patent US20150209399A1",
  "about": "“Methods For Enhacement Of Dehydroepiandrosterone Using Green Coffee Bean Extract” (Applied Food Sciences, Inc., priority 2013, published 2015)",
  "origin": "cited, not measured here",
  "key": {"[1]": {"test_system": "human coxsackievirus B4 strain"}, "[2]": {"test_system": "platelet aggregation", "details": "four of the five test subjects who received DHEA; second week"}, "[3]": {"details": "300 mg DHEA per day orally, second week; baseline 316.2"}, "[4]": {"details": "human, in vivo"}},
  "data": [
    {"molecule": "C[C@]12CCC(O)CC1=CC[C@@H]1[C@@H]2CC[C@]2(C)C(=O)CC[C@@H]12", "note": "(some centres unmarked) [DHEA, 3-hydroxyandrost-5-en-17-one]", "values": [
      {"measurement": "mortality of infected animals treated with DHEA", "setting": "[1]; 100,000 plaque forming units/animal, about 90% mortality in infected animals", "result": 37, "unit": "%"},
      {"measurement": "elevation in the number of antibody forming cells", "setting": "[1]; within the animal", "result": 80, "unit": "%"},
      {"measurement": "rate of platelet aggregation", "setting": "[2]", "result": "slower rate of aggregation"},
      {"measurement": "mean serum DHEA-S level, DHEA group", "setting": "[3]", "result": "1451.9 ± 56.7", "unit": "µg/dL"}
    ]},
    {"molecule": "chlorogenic acids", "values": [
      {"measurement": "half-life", "setting": "[4]", "result": "less than 12 hours"}
    ]}
  ]
}
